# Where a SMILES comes first, the peptide text is derived from it. The star is where a group is joined. Octanoyl = CCCCCCCC(=O)*
# Columns and labels:
# [1] = molecular target: T1, Angiotensin-converting enzyme (Homo sapiens, UniProt P12821); assay: The compound was evaluated for the (%) inhibition of Angiotensin I converting enzyme in venom of Bothrops jararaca at the dose of 10e-4 M; type: tissue-based
# [2] = molecular target: Growth hormone secretagogue receptor type 1 (Homo sapiens, UniProt Q92847); assay: Ability to displace [125I]ghrelin from cloned human Growth hormone secretagogue receptor type I (GSH1a) expressed in COS-7 cells; type: cell-based
# [3] = molecular target: T1, Angiotensin-converting enzyme; assay: Inhibition of Angiotensin I converting enzyme (ACE) in Bothrops jararaca venom
# [4] = molecular target: Somatostatin receptor type 4 (Homo sapiens, UniProt P31391); assay: Binding affinity towards Somatostatin receptor type 4 (hsst4)
# [5] = molecular target: Somatostatin receptor type 5 (Homo sapiens, UniProt P35346); assay: Binding affinity towards Somatostatin receptor type 5 (hsst5)
# [6] = molecular target: Somatostatin receptor type 3 (Homo sapiens, UniProt P32745); assay: Binding affinity towards Somatostatin receptor type 3 (hsst3)
# [7] = molecular target: Somatostatin receptor type 1 (Homo sapiens, UniProt P30872); assay: Binding affinity towards Somatostatin receptor type 1 (hsst1)
# [8] = The compound was evaluated for the inhibition of Glycolate oxidase
# [9] = molecular target: T1, Angiotensin-converting enzyme; assay: Inhibitory activity against Angiotensin I converting enzyme (ACE) in venom of Bothrops jararaca; type: tissue-based
# T1 sequence (P12821 whole entry): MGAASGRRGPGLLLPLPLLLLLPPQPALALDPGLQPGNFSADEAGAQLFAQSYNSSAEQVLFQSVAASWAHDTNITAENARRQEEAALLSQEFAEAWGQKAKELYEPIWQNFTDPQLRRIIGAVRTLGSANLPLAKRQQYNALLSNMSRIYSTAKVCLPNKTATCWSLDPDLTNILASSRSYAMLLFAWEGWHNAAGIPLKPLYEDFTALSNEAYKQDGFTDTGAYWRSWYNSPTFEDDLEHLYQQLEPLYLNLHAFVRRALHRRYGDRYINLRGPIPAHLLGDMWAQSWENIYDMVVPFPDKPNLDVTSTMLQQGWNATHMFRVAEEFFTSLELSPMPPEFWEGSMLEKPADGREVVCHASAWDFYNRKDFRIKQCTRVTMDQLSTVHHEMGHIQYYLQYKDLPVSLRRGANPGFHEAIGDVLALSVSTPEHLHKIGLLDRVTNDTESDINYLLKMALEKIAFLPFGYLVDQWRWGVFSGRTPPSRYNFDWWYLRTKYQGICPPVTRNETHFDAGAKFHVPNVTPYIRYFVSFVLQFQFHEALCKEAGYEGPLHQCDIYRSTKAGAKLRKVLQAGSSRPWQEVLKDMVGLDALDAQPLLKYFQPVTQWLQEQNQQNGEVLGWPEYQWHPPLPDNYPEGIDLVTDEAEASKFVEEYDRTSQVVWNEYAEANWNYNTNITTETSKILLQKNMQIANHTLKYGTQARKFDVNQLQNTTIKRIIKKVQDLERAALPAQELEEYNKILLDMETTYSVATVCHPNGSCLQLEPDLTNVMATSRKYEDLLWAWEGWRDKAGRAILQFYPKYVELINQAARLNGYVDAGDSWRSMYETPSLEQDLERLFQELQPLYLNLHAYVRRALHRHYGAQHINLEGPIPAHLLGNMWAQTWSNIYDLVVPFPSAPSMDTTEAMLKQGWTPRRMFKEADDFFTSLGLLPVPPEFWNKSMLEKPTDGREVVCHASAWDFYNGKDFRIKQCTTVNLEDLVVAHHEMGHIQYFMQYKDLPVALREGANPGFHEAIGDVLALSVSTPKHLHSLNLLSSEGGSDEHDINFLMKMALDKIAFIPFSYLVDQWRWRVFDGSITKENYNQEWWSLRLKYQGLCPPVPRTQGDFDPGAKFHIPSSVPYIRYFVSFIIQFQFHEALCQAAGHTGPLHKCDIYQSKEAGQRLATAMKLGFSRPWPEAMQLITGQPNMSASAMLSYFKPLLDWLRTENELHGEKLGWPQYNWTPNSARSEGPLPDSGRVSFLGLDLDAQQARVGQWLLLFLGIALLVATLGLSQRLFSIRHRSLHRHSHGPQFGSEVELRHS
# Somatostatin receptor type 1, sequence (P30872 whole entry): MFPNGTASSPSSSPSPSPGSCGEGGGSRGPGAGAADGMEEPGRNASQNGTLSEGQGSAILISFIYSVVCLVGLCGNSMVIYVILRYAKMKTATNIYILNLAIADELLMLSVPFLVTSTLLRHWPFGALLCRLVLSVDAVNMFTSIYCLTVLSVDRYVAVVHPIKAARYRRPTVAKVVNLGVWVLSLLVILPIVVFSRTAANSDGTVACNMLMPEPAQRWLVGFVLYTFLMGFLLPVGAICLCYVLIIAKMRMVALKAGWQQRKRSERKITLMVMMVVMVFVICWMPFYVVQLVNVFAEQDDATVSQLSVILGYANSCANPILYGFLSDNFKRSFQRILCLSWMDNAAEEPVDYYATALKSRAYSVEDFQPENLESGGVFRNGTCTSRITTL
# Growth hormone secretagogue receptor type 1, sequence (Q92847 whole entry): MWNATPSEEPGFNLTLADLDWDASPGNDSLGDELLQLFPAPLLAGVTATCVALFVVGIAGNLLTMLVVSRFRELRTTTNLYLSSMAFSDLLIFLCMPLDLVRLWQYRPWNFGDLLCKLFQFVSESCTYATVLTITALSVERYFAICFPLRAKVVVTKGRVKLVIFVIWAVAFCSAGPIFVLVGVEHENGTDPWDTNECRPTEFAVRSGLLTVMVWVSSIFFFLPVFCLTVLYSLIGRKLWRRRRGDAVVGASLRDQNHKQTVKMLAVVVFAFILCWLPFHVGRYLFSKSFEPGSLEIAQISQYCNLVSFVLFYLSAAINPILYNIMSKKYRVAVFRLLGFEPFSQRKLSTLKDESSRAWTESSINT
# Somatostatin receptor type 4, sequence (P31391 whole entry): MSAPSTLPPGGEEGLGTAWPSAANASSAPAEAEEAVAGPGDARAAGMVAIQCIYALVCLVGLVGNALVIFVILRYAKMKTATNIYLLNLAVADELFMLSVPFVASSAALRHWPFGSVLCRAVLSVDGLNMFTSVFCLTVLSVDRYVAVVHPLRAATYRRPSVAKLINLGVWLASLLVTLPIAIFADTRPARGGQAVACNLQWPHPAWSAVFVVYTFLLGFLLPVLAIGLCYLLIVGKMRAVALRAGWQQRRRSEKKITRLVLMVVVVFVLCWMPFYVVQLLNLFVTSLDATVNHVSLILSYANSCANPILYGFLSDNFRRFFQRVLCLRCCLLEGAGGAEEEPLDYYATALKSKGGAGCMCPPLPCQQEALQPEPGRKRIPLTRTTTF
# Somatostatin receptor type 3, sequence (P32745 whole entry): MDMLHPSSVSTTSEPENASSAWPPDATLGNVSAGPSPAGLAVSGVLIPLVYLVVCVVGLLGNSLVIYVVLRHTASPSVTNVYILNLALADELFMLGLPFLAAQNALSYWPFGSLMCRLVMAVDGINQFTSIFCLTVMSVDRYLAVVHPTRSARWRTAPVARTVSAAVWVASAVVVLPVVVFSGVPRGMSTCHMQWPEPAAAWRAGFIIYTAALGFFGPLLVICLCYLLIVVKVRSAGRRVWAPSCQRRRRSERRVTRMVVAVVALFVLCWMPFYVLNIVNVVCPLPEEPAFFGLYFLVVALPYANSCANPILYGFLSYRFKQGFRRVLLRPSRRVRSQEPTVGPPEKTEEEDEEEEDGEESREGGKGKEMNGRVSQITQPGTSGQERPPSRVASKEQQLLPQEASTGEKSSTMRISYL
# Somatostatin receptor type 5, sequence (P35346 whole entry): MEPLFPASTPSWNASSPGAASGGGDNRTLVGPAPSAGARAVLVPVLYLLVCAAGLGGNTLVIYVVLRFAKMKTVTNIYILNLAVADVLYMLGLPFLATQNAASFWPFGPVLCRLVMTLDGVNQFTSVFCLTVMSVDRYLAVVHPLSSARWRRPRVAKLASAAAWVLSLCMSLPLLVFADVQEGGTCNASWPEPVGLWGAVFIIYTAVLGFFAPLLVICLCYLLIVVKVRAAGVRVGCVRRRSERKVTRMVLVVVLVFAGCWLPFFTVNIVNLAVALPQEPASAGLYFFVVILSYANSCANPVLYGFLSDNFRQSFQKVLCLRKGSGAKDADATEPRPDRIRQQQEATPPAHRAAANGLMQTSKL
compound,measurement,setting,value
O=C(O)CCC(=O)N1CCC[C@H]1C(=O)O,inhibition,[1],43%
CCCCCCCC(=O)OC[C@H](NC(=O)[C@H](CO)NC(=O)CN)C(=O)N[C@@H](Cc1ccccc1)C(=O)N[C@@H](CC(C)C)C(=O)N[C@@H](CO)C(=O)N1CCC[C@H]1C(=O)N[C@@H](CCC(=O)O)C(=O)N[C@@H](Cc1c[nH]cn1)C(=O)N[C@@H](CCC(N)=O)C(=O)N[C@@H](CCCN=C(N)N)C(=O)N[C@H](C(=O)N[C@@H](CCC(N)=O)C(=O)N[C@@H](CCC(N)=O)C(=O)N[C@@H](CCCN=C(N)N)C(=O)N[C@@H](CCCCN)C(=O)N[C@@H](CCC(=O)O)C(=O)N[C@@H](CO)C(=O)N[C@@H](CCCCN)C(=O)N[C@@H](CCCCN)C(=O)N1CCC[C@H]1C(=O)N1CCC[C@H]1C(=O)N1CCC[C@H]1C(=O)N[C@@H](C)C(=O)N[C@@H](CCCCN)C(=O)N[C@@H](CC(C)C)C(=O)N[C@@H](CCC(N)=O)C(=O)N1CCC[C@H]1C(=O)N[C@@H](CCCN=C(N)N)C(=O)O)C(C)C (H-GSS(Octanoyl)FLSPEHQRVQQRKESKKPPPAKLQPR-OH),IC50,[2],0.71 nM
CC(CCC(=O)N1CCC[C@H]1C(=O)O)C(=O)O (stereo partly specified),IC50,[3],260000 nM
C[C@@H](c1c[nH]c2ccccc12)[C@@H](NC(=O)N1CCC(n2c(=O)[nH]c3ccccc32)CC1)C(=O)N[C@@H](CCCCN)C(=O)OC(C)(C)C,Ki,[4],81 nM
same,Ki,[5],163 nM
same,Ki,[6],31 nM
same,Ki,[7],2390 nM
O=C(O)/C(O)=C\C(=O)c1ccc(-c2ccc(Br)cc2)cc1,IC50,[8],60 nM
H-EKWAP-OH,IC50,[3],60 nM
O=C(O)CCCC(=O)N1CCC[C@H]1C(=O)O,IC50,[3],70000 nM
O=CC(Cc1ccccc1)NC(CCc1ccccc1)C(=O)O (stereo unspecified),Ki,[9],50000 nM

# Source: ChEMBL document CHEMBL1135683, “2002 Alfred Burger Award Address in Medicinal Chemistry. Natural products and design: interrelated approaches in drug discovery” (J Med Chem, 2002)
